Measured values reported in patent US20180168208A1 (priority 2014, published 2018).
Where two headings read alike, the source gives them in different places.

Molecular target: T1, cat T1R1/T1R3 receptor (Felis catus, UniProt A0ABI7Z2I4)
T1 sequence (A0ABI7Z2I4 171-420): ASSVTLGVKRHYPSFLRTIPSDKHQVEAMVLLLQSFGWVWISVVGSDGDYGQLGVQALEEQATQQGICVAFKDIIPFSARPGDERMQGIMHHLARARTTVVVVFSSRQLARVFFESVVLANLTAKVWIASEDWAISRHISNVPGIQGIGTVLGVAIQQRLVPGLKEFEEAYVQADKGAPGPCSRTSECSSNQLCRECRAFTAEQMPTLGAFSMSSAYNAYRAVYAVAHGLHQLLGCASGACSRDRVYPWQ
T1 sequence (Q49KI5 25-865 E206Q/N523D/F654L partner): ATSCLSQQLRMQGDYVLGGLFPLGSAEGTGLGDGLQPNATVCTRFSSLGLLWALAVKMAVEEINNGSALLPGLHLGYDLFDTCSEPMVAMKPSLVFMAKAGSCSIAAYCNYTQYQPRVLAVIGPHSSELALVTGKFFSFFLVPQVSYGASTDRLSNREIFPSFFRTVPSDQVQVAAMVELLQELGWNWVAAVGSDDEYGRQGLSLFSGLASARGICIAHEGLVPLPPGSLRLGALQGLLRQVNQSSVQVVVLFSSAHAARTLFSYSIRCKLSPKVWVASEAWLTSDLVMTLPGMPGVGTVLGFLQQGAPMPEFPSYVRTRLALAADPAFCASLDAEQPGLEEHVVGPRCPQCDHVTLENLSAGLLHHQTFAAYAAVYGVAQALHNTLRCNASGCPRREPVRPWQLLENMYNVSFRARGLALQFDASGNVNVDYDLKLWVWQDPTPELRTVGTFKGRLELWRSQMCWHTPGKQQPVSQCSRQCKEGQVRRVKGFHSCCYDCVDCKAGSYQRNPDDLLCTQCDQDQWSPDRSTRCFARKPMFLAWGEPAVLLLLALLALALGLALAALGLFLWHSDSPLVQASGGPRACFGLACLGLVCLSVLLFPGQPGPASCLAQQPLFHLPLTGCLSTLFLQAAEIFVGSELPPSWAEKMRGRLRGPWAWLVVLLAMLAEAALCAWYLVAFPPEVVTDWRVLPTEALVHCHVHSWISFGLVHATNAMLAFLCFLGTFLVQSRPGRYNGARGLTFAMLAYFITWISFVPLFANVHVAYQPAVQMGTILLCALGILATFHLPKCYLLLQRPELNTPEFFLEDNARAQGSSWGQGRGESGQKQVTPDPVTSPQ
Experiment: cell-based
Conditions: for function as activators of T1R1/T1R3 (in words): in the presence of alanine
Text: HEK293 cells that stably express T1R3 and inducibly express T1R1 were exposed to nucleotide derivatives alone or in combination with one or more amino acids and/or one or more nucleotides to activate the umami receptor. Activation of the T1R1/T1R3 receptor was detected by a change in intracellular calcium levels using a calcium sensitive fluorescent dye and/or a luminescent reporter system. Cells that express T1R3 but not T1R1 were used as a control. A FLIPR® Tetra or a FlexStation® 3 was used for data capture.

[1] = maximum response in relation to the response with IMP, 20 mM alanine
[2] = maximum response of the receptor, 20 mM alanine
[3] = threshold amount that results in activation of T1R1/T1R3, 20 mM alanine

Which results are given for `CNc1ncnc2c1ncn2[C@H]1C[C@H](OP(=O)(O)O)[C@@H](COP(=O)(O)O)O1`?
Max resp. (ΔF/F): 1.8150 ΔF/F; Max. resp. % of IMP: 146.1 % of IMP; Threshold: 0.013 mM

How did the Activity turn out when `O=C(Nc1ncnc2c1ncn2[C@@H]1O[C@H](COP(=O)(O)O)[C@@H](O)[C@H]1O)c1ccccc1` was run?
Its Activity is “active”.

What about the “Max resp. (ΔF/F)” value of the same compound?
The value was 1.1 ΔF/F.

What about the Threshold of the same compound?
Its Threshold is 0.3 mM.

What about the EC50 (read-out: EC50- with Ala) of the same compound?
Its EC50 is greater than 1000 µM.

Which results are given for `O=c1ccn(C2OC(COP(=O)(O)N3CCOCC3)C(O)C2O)c(=O)[nH]1` (stereo not shown)?
Max. resp. % of IMP [1]: 104.8 % of IMP; Max resp. (ΔF/F) [2]: 1.0150 ΔF/F; Threshold [3]: 2.000 mM

Which results are given for “2′-,3′-O-(N′-Methylanthraniloyl) guanosine-5′-O-monophosphate”?
Max. resp. % of IMP [1]: 74.3 % of IMP; Max resp. (ΔF/F) [2]: 0.7190 ΔF/F; Threshold [3]: 0.0014 mM

How did the Activity (+Alanine (20 mM)) turn out when “2′-,3′-O-(N′-Methylanthraniloyl)guanosine-5′-O-monophosphate” was run?
Its Activity is “active”.

What about the “Max. resp. % of IMP” value [1] of the same compound?
The value was 74.3 % of IMP.

And the “Max resp. (ΔF/F)” value [2]?
Its value is 0.7190 ΔF/F.

What about the Threshold [3] of the same compound?
Its Threshold is 0.0014 mM.

“2′-, 3′-O—(N′-methylanthraniloyl)guanosine-5′-O-monophosphate” was tested. Which “function as activators of T1R1/T1R3 (in words)” value did it give?
Its value is “activators of T1R1/T1R3”.

With `Nc1ncnc2c1ccn2[C@H]1O[C@@H](COP(=O)(O)O)[C@H](O)[C@@H]1O` (stereo in doubt) [7-Deazaadenosine-5′-O-monophosphate] as the compound, how does the Activity read?
The Activity was “active”.

What about the Threshold of the same compound?
Its Threshold is 0.188 mM.

What does the source list for `Nc1nc2c(ncn2[C@H]2O[C@@H](COP(=O)(O)O)[C@H](O)[C@@H]2O)c(=O)[nH]1` (stereo in doubt) [guanosine monophosphate, reference compound]?
Activity: active; EC50: 30 µM; Threshold: 0.008 mM

For `O=c1ccn([C@H]2O[C@@H](COP(=O)(O)O)[C@H](O)[C@@H]2O)c(=O)[nH]1` (stereo in doubt) [uridine monophosphate], which Activity is on record?
The Activity was “active”.

And the EC50?
The EC50 was greater than 30000 µM.

What about the Threshold of the same compound?
The Threshold was 3.000 mM.

Which Threshold does the source give for `O=P(O)(O)OC[C@H]1O[C@@H](n2cnc3c2ncn2ccnc32)[C@H](O)[C@@H]1O` [1, N6-Ethenoadenosine-5′-O-monophosphate] here?
Its Threshold is 0.010 mM.

`O=P(O)(O)OC[C@H]1O[C@@H](n2cnc3c2ncn2ccnc32)[C@H](O)[C@@H]1O` [1,N6-Ethenoadenosine-5′-O-monophosphate] was tested. Which Activity (+Alanine (20 mM)) did it give?
The Activity was “active”.

With `Nc1nc(Cl)c2ncn(C3OC(COP(=O)(O)O)C(O)C3O)c2n1` (stereo not shown) [2-amino-6-chloropurineriboside-5′-O-monophosphate] as the compound, how does the Activity read?
Its Activity is “active”.

What about the EC50 of the same compound?
The EC50 was 0.5 µM.

And the Threshold?
Its Threshold is 0.00013 mM.

Which Activity does the source give for `CNc1ccccc1C(=O)OC1C[C@H](n2cnc3c(=O)[nH]c(N)nc32)O[C@@H]1COP(=O)(O)O` (stereo partly shown) [2′-Deoxy-3′-O-(N′-methylanthraniloyl) guanosine-5′-O-monophosphate] here?
Its Activity is “active”.

What about the “Max resp. (ΔF/F)” value of the same compound?
The value was 0.295 ΔF/F.

And the “Max. resp. % of IMP” value?
Its value is 23.7 % of IMP.

And the Threshold?
The Threshold was 0.0025 mM.

What about the “function as activators of T1R1/T1R3 (in words)” value of the same compound?
The value was “activators of T1R1/T1R3”.

For `CNc1ccccc1C(=O)O[C@H]1C[C@H](n2cnc3c(N)ncnc32)O[C@@H]1COP(=O)(O)O` [2′-Deoxy-3′-O-(N′-methylanthraniloyl)adenosine-5′-O-monophosphate], which Activity is on record?
The Activity was “active”.

And the “Max resp. (ΔF/F)” value?
Its value is 0.3975 ΔF/F.

What about the “Max. resp. % of IMP” value of the same compound?
Its value is 32.0 % of IMP.

What about the Threshold of the same compound?
The Threshold was 0.0025 mM.
